Measured values reported in article PMC5564600 (Oncotarget, 2017).

Legend:
Test in all cases: biochemical
Type in all cases: binding
panel of 442 kinases [1] = target: T1, panel of 442 kinases (Homo sapiens, UniProt P09619); details: kinase PDGFRB; for remaining activity at 1 µM: read-out: % of control at 1 µM
T1 construct: purchased Ambit Biosciences (scanMAXX KINOMEscan)

panel of 442 kinases [2] = target: T2, panel of 442 kinases (Homo sapiens, UniProt P43403); details: kinase ZAP70; for remaining activity at 1 µM: read-out: ZAP70 (% of control at 1 µM)
T2 construct: purchased Ambit Biosciences (scanMAXX KINOMEscan)
T2 sequence (P43403 1-619): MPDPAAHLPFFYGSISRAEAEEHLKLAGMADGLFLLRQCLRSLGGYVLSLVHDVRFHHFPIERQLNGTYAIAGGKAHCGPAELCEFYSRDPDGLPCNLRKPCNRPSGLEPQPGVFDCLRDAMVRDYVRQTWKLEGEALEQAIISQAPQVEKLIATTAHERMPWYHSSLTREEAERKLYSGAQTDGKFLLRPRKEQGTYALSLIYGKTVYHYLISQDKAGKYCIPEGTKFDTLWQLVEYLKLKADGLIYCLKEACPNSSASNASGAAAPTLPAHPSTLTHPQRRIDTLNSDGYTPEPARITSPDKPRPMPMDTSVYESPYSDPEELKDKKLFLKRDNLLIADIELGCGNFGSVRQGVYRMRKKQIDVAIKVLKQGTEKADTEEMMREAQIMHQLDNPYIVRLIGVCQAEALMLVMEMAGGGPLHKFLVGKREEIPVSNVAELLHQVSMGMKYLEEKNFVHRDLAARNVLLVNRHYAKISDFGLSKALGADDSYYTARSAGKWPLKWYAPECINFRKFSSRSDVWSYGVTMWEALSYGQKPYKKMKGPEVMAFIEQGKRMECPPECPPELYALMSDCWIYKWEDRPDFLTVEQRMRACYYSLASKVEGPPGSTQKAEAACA

panel of 442 kinases [3] = target: T3, panel of 442 kinases (Homo sapiens, UniProt Q06418); details: kinase TYRO3; for remaining activity at 1 µM: read-out: TYRO3 (% of control at 1 µM)
T3 construct: purchased Ambit Biosciences (scanMAXX KINOMEscan)
T3 sequence (Q06418 41-890): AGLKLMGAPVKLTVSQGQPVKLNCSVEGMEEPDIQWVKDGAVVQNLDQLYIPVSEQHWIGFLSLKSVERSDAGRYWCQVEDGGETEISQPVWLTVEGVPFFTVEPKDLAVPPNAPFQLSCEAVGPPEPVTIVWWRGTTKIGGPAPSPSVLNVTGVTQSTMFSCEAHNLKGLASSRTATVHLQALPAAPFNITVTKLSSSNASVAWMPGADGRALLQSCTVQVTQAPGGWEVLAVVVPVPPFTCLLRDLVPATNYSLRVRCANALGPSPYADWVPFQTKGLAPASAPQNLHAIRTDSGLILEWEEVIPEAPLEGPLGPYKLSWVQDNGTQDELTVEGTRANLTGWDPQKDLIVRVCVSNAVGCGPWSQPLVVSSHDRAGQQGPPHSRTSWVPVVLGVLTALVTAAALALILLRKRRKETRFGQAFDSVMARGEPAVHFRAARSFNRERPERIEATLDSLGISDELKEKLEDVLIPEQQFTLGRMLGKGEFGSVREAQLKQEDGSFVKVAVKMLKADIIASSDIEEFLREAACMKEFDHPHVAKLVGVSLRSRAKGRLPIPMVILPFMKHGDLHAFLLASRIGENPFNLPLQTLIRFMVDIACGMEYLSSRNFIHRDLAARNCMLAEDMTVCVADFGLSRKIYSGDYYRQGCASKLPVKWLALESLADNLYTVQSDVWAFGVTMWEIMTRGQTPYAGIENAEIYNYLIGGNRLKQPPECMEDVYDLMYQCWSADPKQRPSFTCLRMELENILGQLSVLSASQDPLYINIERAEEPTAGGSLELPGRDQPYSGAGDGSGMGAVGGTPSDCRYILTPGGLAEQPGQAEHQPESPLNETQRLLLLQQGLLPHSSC

panel of 442 kinases [4] = target: T4, panel of 442 kinases (Homo sapiens, UniProt Q08881); details: kinase ITK; for remaining activity at 1 µM: read-out: % of control at 1 µM
T4 construct: purchased Ambit Biosciences (scanMAXX KINOMEscan)
T4 sequence (Q08881 1-620): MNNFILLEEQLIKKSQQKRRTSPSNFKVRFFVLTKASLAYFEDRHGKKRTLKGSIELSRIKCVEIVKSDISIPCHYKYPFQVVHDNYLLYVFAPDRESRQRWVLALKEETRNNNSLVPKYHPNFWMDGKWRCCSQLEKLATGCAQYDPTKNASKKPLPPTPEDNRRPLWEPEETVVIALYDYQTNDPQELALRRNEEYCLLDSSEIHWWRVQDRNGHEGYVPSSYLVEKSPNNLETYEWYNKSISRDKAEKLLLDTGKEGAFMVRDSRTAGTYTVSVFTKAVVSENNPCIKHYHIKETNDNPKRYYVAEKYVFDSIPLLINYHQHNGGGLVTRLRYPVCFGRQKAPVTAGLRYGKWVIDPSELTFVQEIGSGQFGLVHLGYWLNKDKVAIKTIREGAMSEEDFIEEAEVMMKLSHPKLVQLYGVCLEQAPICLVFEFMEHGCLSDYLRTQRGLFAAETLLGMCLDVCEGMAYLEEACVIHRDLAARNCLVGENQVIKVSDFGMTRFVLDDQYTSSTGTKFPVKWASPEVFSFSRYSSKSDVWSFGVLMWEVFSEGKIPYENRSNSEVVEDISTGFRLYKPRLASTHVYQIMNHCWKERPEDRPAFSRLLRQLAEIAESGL

panel of 442 kinases [5] = target: T5, panel of 442 kinases (Homo sapiens, UniProt Q13233); details: kinase MAP3K1; for remaining activity at 1 µM: read-out: % of control at 1 µM
T5 construct: purchased Ambit Biosciences (scanMAXX KINOMEscan)
T5 sequence (Q13233 whole entry): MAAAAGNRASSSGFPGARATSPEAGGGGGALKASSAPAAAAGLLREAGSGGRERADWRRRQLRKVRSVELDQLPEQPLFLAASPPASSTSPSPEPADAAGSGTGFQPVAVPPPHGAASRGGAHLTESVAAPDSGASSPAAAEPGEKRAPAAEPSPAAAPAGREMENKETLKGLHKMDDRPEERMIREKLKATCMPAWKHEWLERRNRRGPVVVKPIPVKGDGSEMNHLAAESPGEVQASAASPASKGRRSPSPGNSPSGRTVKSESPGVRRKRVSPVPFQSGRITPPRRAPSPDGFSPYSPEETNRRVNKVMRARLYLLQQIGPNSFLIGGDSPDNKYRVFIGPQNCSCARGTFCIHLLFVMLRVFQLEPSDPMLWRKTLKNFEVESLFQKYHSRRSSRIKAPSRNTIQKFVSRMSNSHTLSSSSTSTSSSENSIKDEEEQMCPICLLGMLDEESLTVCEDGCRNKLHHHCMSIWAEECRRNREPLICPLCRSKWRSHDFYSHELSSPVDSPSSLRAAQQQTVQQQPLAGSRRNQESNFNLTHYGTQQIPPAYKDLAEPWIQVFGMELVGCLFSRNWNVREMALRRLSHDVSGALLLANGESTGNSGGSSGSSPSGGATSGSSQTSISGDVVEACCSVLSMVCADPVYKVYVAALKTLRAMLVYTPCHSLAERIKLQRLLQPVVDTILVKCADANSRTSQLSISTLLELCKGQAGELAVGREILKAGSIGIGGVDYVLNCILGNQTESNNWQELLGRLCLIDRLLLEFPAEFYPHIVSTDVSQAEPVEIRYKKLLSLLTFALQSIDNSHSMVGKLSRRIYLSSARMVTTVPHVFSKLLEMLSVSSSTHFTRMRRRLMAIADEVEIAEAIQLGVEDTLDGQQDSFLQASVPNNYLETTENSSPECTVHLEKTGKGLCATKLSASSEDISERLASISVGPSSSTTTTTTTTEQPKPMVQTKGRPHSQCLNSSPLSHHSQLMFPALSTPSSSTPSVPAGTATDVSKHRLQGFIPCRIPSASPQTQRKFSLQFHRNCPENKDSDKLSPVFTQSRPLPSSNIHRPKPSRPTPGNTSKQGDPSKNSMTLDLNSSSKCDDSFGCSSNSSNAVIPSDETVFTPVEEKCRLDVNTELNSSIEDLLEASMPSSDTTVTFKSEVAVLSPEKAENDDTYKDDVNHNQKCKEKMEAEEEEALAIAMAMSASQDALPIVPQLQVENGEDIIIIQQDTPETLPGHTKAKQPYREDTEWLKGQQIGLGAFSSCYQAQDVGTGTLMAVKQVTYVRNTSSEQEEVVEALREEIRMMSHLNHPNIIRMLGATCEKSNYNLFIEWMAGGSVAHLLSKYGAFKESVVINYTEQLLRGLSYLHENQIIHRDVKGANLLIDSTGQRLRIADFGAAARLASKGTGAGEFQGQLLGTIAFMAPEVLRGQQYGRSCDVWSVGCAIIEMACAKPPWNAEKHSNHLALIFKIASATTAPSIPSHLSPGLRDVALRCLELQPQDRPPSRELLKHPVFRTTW

[6] = 10 µM, read-out: % of control at 10 µM

T1 sequence (P09619 33-1106): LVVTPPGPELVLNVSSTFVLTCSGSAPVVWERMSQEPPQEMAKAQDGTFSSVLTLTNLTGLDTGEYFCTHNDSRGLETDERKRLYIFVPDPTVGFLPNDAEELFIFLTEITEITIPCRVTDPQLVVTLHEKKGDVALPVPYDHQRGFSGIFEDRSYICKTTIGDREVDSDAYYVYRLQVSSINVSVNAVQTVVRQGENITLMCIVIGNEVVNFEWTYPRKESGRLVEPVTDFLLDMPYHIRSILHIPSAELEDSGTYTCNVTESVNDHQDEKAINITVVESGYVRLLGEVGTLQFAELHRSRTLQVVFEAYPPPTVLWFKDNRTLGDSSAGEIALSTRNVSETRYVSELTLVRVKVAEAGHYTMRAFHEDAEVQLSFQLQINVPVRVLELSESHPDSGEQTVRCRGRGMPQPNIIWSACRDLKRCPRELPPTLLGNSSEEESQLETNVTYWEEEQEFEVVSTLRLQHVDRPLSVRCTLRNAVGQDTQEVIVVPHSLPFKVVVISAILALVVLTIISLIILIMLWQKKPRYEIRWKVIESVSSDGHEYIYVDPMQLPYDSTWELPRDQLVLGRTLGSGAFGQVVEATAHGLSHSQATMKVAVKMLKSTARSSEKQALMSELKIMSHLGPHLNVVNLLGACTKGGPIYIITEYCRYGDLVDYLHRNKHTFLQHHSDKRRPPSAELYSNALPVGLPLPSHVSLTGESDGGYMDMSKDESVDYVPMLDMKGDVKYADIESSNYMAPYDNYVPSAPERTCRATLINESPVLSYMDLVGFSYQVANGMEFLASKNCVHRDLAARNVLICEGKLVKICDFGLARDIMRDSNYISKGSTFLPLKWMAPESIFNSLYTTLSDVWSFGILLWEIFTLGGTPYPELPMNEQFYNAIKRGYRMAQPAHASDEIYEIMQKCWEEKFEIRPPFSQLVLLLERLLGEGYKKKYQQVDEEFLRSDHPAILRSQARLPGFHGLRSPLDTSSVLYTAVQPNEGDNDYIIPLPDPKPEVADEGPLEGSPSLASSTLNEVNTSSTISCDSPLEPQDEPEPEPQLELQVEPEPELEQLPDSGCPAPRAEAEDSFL

SMILES	remaining activity at 1 µM (panel of 442 kinases [1]) [%]	remaining activity at 10 µM (panel of 442 kinases [1]; [6]) [%]	remaining activity at 1 µM (panel of 442 kinases [2]) [%]	remaining activity at 10 µM (panel of 442 kinases [2]; 10 µM, read-out: ZAP70 (% of control at 10 µM)) [%]	remaining activity at 1 µM (panel of 442 kinases [3]) [%]	remaining activity at 10 µM (panel of 442 kinases [3]; 10 µM, read-out: TYRO3 (% of control at 10 µM)) [%]	remaining activity at 1 µM (panel of 442 kinases [4]) [%]	remaining activity at 10 µM (panel of 442 kinases [4]; [6]) [%]	remaining activity at 1 µM (panel of 442 kinases [5]) [%]	remaining activity at 10 µM (panel of 442 kinases [5]; [6]) [%]
Nc1cc(C(F)(F)F)c(-c2cc(N3CCOCC3)nc(N3CCOCC3)n2)cn1 [Buparlisib]	100	97	100	100	100	100	100	100	100	100
Cn1c(=O)n(-c2ccc(C(C)(C)C#N)cc2)c2c3cc(-c4cnc5ccccc5c4)ccc3ncc21 [Dactolisib, 2-methyl-2-[4-(3-methyl-2-oxo-8-quinolin-3-yl-2,3-dihydroimidazo[4,5-c]quinolin-1-yl)-phenyl] propionitrile]	–	–	99	–	100	–	91	–	100	–
COc1ncc(-c2ccc3nccc(-c4ccnnc4)c3c2)cc1NS(=O)(=O)c1ccc(F)cc1F [Omipalisib]	96	–	100	–	100	–	86	–	100	–
FC(F)c1nc2ccccc2n1-c1nc(N2CCOCC2)nc(N2CCOCC2)n1 [ZSTK474, 2-(difluoromethyl)-1-[4,6-di(4-morpholinyl)-1,3,5-triazin-2-yl]-1H-benzimidazole]	100	–	94	–	88	–	97	–	100	–
